Test systems include Escherichia coli 37; Staphylococcus aureus 37; Pseudomonas aeruginosa; Staphylococcus aureus 10; Escherichia coli 117; Klebsiella pneumoniae; Shigella dysenteriae; Escherichia coli 5580; Escherichia coli 170; Salmonella typhimurium; Escherichia coli 4530; Acinetobacter baumannii; Staphylococcus aureus.
Experiment in all cases: ≥ marks a high value that may be exact or a test limit, other limits are often not marked, values filed in µg/mL are converted to µM
The test system of assay [1] is Klebsiella pneumoniae ATCC 700603.
Assay [2] deals with Escherichia coli ATCC 25922.
The test system of assay [3] is Enterococcus faecalis ATCC 29212.
For assay [4], the system named is Pseudomonas aeruginosa CMCCB 1010.
Assay [5] relates to Pseudomonas aeruginosa ATCC 27853.
In assay [6] the test system is Candida parapsilosis ATCC 22019.
Assay [7] has as its system Candida albicans ATCC 90028.
In assay [8] the test system is Enterobacter cloacae ATCC 13047.
For assay [9], the system named is Staphylococcus aureus ATCC 25923.
The subject of assay [10] is Candida albicans ATCC 2002.
Assay [11] concerns Klebsiella pneumoniae ST258.
Assay [12] relates to Klebsiella pneumoniae 913.
Assay [13] relates to Pseudomonas aeruginosa 5106.
Assay [14] relates to Streptococcus pneumoniae ATCC 49619.
The subject of assay [15] is Enterobacter cloacae 2524.
Assay [16] deals with Pseudomonas aeruginosa 3599.
Assay [17] concerns Pseudomonas aeruginosa 4677.
For assay [18], the system named is Staphylococcus aureus ATCC 6538.
Assay [19] has as its system Pseudomonas aeruginosa ATCC 9027.
Assay [20] deals with Proteus vulgaris ATCC 6380.
Assay [21] relates to Micrococcus luteus ATCC 9341.
The subject of assay [22] is Candida albicans ATCC 36232.
In assay [23] the test system is Escherichia coli ATCC 2592.
Assay [24] deals with Bacillus subtilis IFO 3134.
Assay [25] has as its system Staphylococcus aureus IFO 12732.
Assay [26] deals with Pseudomonas aeruginosa IFO 12582.
Assay [27] deals with Escherichia coli IFO 12734.
Assay [28] concerns Staphylococcus aureus A170.
For assay [29], the system named is Staphylococcus epidermidis.

This passage reports MIC results from DBAASP.

The MIC is the lowest concentration found to suppress growth. A low value points to a more susceptible organism.

In brackets after ≈: the same amount, converted by molar mass.

On to `CC[C@H](C)[C@H](NC(=O)[C@@H](NC(=O)[C@@H]1CCCN1C(=O)[C@H](CC(C)C)NC(=O)[C@@H](N)Cc1ccccc1)[C@@H](C)CC)C(=O)NCC(=O)N[C@@H](CCCCN)C(=O)N[C@@H](CC(C)C)C(=O)N[C@@H](CC(C)C)C(=O)N[C@@H](CO)C(=O)NCC(=O)O` [FLPIIGKLLSG], for which the MIC against Escherichia coli 37 was 17.3 µM (≈ 20 µg/mL); in [1] it was 8.64 µM (≈ 10 µg/mL); in [2], 4.32 µM (≈ 5 µg/mL); in assay [3], 17.3 µM (≈ 20 µg/mL); against Staphylococcus aureus 37 it was 4.32 µM (≈ 5 µg/mL); in [4], 17.3 µM (≈ 20 µg/mL). Moreover, the minimal inhibitory concentration (MIC) in assay [5] was determined as 34.6 µM (≈ 40 µg/mL); in [6], 4.32 µM (≈ 5 µg/mL); in assay [7], 17.3 µM (≈ 20 µg/mL); with Pseudomonas aeruginosa it was 8.64 µM (≈ 10 µg/mL); in assay [8], 2.16 µM (≈ 2.5 µg/mL); in [9], 2.16 µM (≈ 2.5 µg/mL). Further, the MIC in the assay with Staphylococcus aureus 10 was found to be 8.64 µM (≈ 10 µg/mL); in [10], 8.64 µM (≈ 10 µg/mL); against Escherichia coli 117 it was 4.32 µM (≈ 5 µg/mL); in the assay with Klebsiella pneumoniae, 69.1 µM (≈ 80 µg/mL); with Shigella dysenteriae, 4.32 µM (≈ 5 µg/mL).
Regarding `CC[C@H](C)[C@H](NC(=O)CN)C(=O)N[C@@H](CC(C)C)C(=O)N[C@@H](CCCCN)C(=O)N[C@H](C(=O)N[C@H](C(=O)N[C@@H](CCCCN)C(=O)N[C@@H](CO)C(=O)N[C@H](C(=O)N[C@@H](C)C(=O)N[C@@H](CO)C(=O)N[C@@H](CCCCN)C(=O)N[C@H](C(=O)N[C@@H](C)C(=O)N[C@@H](CC(N)=O)C(=O)N[C@H](C(=O)N[C@H](C(=O)N[C@@H](CCC(N)=O)C(=O)N[C@@H](CCCCN)C(=O)N[C@@H](CC(C)C)C(=O)N[C@@H](CCCCN)C(=O)N[C@@H](CCCN=C(N)N)C(=O)N[C@@H](CCCCN)C(=O)N[C@@H](C)C(=O)N[C@@H](CCCCN)C(=O)N[C@@H](CC(N)=O)C(=O)N[C@@H](C)C(=O)N[C@H](C(=O)O)C(C)C)C(C)C)[C@@H](C)O)C(C)C)[C@@H](C)CC)[C@@H](C)CC)[C@@H](C)O` [GILKTIKSIASKVANTVQKLKRKAKNAV], the MIC came to 16.6 µM (≈ 50 µg/mL) in assay [11]; 3.1 µM (≈ 9.33 µg/mL) in assay [12]; 1.6 µM (≈ 4.81 µg/mL) against Escherichia coli 5580; 12 µM (≈ 36.1 µg/mL) in assay [13]; 1.6 µM (≈ 4.81 µg/mL) in assay [2]; 0.8 µM (≈ 2.41 µg/mL) in the assay on Escherichia coli 170. In addition, the MIC in assay [14] is no less than 50 µM; in assay [15], 3.1 µM (≈ 9.33 µg/mL); in assay [5], 8.31 µM (≈ 25 µg/mL); in assay [16], no less than 50 µM; in assay [17], 6.2 µM (≈ 18.7 µg/mL); against Salmonella typhimurium, 2.23 µM (≈ 6.7 µg/mL). In addition, the MIC was 3.1 µM (≈ 9.33 µg/mL) against Escherichia coli 4530, greater than 16.6 µM in assay [9] and 3.1 µM (≈ 9.33 µg/mL) with Acinetobacter baumannii.
In the case of `CC[C@H](C)[C@H](NC(=O)[C@H](CCCCN)NC(=O)[C@@H]1CCCN1C(=O)[C@H](CC(C)C)NC(=O)[C@H](Cc1ccccc1)NC(=O)[C@H](CC(N)=O)NC(=O)[C@H](C)NC(=O)[C@H](C)NC(=O)[C@H](CC(C)C)NC(=O)CN)C(=O)N[C@@H](Cc1ccccc1)C(=O)N[C@@H](CS)C(=O)N[C@@H](CCCCN)C(=O)N[C@H](C(=O)N[C@H](C(=O)N[C@@H](CCCN=C(N)N)C(=O)N[C@@H](CCCCN)C(=O)N[C@@H](CS)C(N)=O)[C@@H](C)O)[C@@H](C)CC` [GLAANFLPKIFCKITRKC], the minimum inhibitory concentration (MIC) in assay [18] was 12.4 µM (≈ 25 µg/mL); in assay [19] it was 6.18 µM (≈ 12.5 µg/mL); against Staphylococcus aureus, 49.4 µM (≈ 100 µg/mL); in assay [20], no less than 49.4 µM; in [21], 6.18 µM (≈ 12.5 µg/mL); in assay [22], 12.4 µM (≈ 25 µg/mL). This compound also returned an MIC in assay [23] of 12.4 µM (≈ 25 µg/mL).
As for `CC[C@H](C)[C@H](NC(=O)[C@H](C)NC(=O)[C@@H]1CCCN1C(=O)[C@@H](NC(=O)[C@@H](NC(=O)[C@H](Cc1cnc[nH]1)NC(=O)[C@H](C)NC(=O)[C@H](C)NC(=O)[C@@H](NC(=O)[C@H](CCCCN)NC(=O)[C@H](C)NC(=O)[C@H](CC(C)C)NC(=O)[C@@H](NC(=O)CNC(=O)[C@H](Cc1ccccc1)NC(=O)[C@@H](N)CC(C)C)C(C)C)C(C)C)C(C)C)C(C)C)C(=O)N[C@@H](C)C(=O)N[C@@H](CCC(=O)O)C(=O)N[C@@H](Cc1cnc[nH]1)C(=O)N[C@@H](Cc1ccccc1)C(N)=O` [LFGVLAKVAAHVVPAIAEHF], the MIC in [24], in assay [25], in assay [26] and in assay [27] was no less than 64 µM in each case.
`CC[C@H](C)[C@H](NC(=O)[C@H](C)NC(=O)[C@H](CC(C)C)NC(=O)[C@@H](N)CC(C)C)C(=O)N[C@H](C(=O)NCC(=O)N[C@@H](CC(N)=O)C(=O)N[C@@H](CC(C)C)C(=O)N[C@@H](CC(C)C)C(=O)N[C@@H](CCCCN)C(=O)N[C@@H](CO)C(=O)N[C@@H](CC(C)C)C(=O)N[C@@H](CC(C)C)C(=O)O)C(C)C` [LLAIVGNLLKSLL]: the MIC in assay [28] and in assay [29] was 7.32 µM (≈ 10 µg/mL) in each case.
